{"source": "patent US7723473B2", "about": "“Peptide antagonists of TGF-beta family members and therapeutic uses thereof” (St. Louis University, priority 1997, dated 2010)", "key": {"[1]": {"system": "TGF-β receptors", "test": "Inhibition of specific binding of 125I-TGF-β1 to TGF-β receptors in mink lung epithelial cells", "conditions": "peptide at 34 μM", "experimental": "Specific binding of ^125I-labeled TGF-β1, TGF-β2, and TGF-β3 (^125I-TGF-β1, ^125I-TGF-β2, and ^125I-TGF-β3) to TGF-β receptors in mink lung epithelial cells. ^125I-TGF-β1, ^125I-TGF-β2, and ^125I-TGF-β3 were prepared by iodination of TGF-β1, TGF-β2, and TGF-β3 with Na^125I as described previously (Ref. 7). The specific radioactivities of ^125I-TGF-β1, ^125I-TGF-β2, and ^125I-TGF-β3 were 1-3×10^5 cpm/ng. Mink lung epithelial cells were grown on 24-well clustered dishes to near confluence in Dulbecco's modified Eagle medium (DMEM) containing 10% fetal calf serum. The epithelial cells were incubated with 0.1 nM ^125I-TGF-β1, ^125I-TGF-β2, or ^125I-TGF-β3 both with and without 100-fold excess of unlabeled TGF-β1, TGF-β2, or TGF-β3 in binding buffer (Ref. 7). After 2.5 hr at 0° C., the cells were washed two times with binding buffer, and the cell-associated radioactivity was determined. […] All experiments were carried out in triplicate cell cultures."}, "[2]": {"system": "type V TGF-β receptor (TβR-V)", "test": "125I-TGF-β1-affinity labeling of cell-surface type V TGF-β receptor in mink lung epithelial cells", "format": "binding", "conditions": "peptide at 2.3 μM", "experimental": "(§1) ^125I-TGF-β1-affinity labeling of cell-surface TGF-β receptors in mink lung epithelial cells. Mink lung epithelial cells grown on 60-mm Petri dishes were incubated with 0.1 nM […] the presence of various concentrations of peptide β1^25 (41-65) or peptide β3^25 (41-65) in binding buffer. After 2.5 hr at 0° C., ^125I-TGF-β1-affinity labeling was carried out in the presence of DSS as described. The ^125I-TGF-β1-affinity-labeled TGF-β receptors were analyzed by 5% SDS-polyacrylamide gel electrophoresis under reducing conditions and autoradiography."}, "[3]": {"system": "type I, type II, and type III TGF-β receptors", "test": "125I-TGF-β1-affinity labeling of other cell-surface TGF-β receptor types in mink lung epithelial cells", "format": "binding", "conditions": "peptide at 2.3 μM", "experimental": "as §1"}, "[4]": {"system": "mink lung epithelial cells", "test": "Blocking of TGF-β1-induced growth inhibition ([methyl-3H]thymidine incorporation, DNA synthesis)", "format": "cell-based", "experimental": "(§2) [Methyl-^3H]thymidine Incorporation—Mink lung epithelial cells grown on 24-well clustered dishes were incubated with various concentrations of TGF-β1 in the presence and absence of peptide β1^25 (41-65) or with various concentrations of peptide β1^25 (41-65)-CA, and peptide β1^25 (41-65)-BSA in DMEM containing 0.1% fetal calf serum. After 16 hr at 37° C., the cells were pulsed with 1 μCi/ml of [methyl-^3H]thymidine for 4 hr. The cells were then washed twice with 1 ml of 10% trichloroacetic acid and once with 0.5 ml of ethanol:ether (2:1, v/v). The cells were then dissolved in 0.4 ml of 0.2 N NaOH and counted with a liquid scintillation counter."}, "[5]": {"system": "mink lung epithelial cells", "test": "Mink lung epithelial cell growth measured by DNA synthesis without added TGF-β1 (agonist activity)", "format": "cell-based", "experimental": "as §2"}, "[6]": {"system": "burn wounds", "test": "Pig burn wound model", "format": "in vivo", "conditions": "for re-epithelialization / healing rate versus vehicle: after post-burn day 10; for scarring versus vehicle-only control wounds: post-burn day 35 (and 41)", "experimental": "Preparation of IntraSite® gel containing TGF-β peptantagonist (peptide TGF-beta antagonist). 1 ml of sterile 6 mM peptide β1^25 (41-65) in phosphate buffered saline or 1 ml of sterile phosphate buffered saline was vigorously mixed with 3 ml of IntraSite® gel using two 10 ml syringes connected with a three-way connector. […] However, 1.5 mM of peptide β1^25 (41-65) was used throughout the experiments described below.\n(§3) Burn wound model. Four pigs weighing 20-25 kg were anesthetized by intramuscular injection of ketamine (5 mg/kg), strenil® (cazaporonum) (20 mg/kg) and atropine (5 mg/kg). Six uniform burn wounds (110° C., 30 sec) were then made symmetrically on the back of each pig using a modified soldering iron (Ref. 15) with a flat contact area of 20 cm^2. […] After wounding, a thin layer of Intrasite®) gel containing either peptide β1^25 (41-65), buffer or nothing else was applied to the wounds. All wounds were dressed with paraffin gauze. The dressing was changed every two days for the first 10 days and twice a week for the next 30 days. Gel comprising peptide β1^25 (41-65) and control gel were applied and wound measurements were made at each dressing change.\nAssessment of wound healing. Wound healing was assessed by evaluating the rates of wound re-epithelization and contraction. The open wound area and the area enclosed by the normal hair bearing skin were measured using the macrophotography technique (Ref. 14). The healing rate was monitored every two days for the first 10 days and twice a week for 30 more days. Wound reepithelialization as a percent of the original wound size was calculated using the following formula:\n[formula] where E=rate of re-epithelialization in percent; An=area enclosed by the normal hair bearing skin on a given post-burn day; Ao=area of open wound on the same day as was measured. Wound contraction was calculated using the following formula:\n[formula] where C=rate of wound contraction in percent; Al=wound area as measured immediately following the burn or excision injury; An=area enclosed by normal hair bearing skin.\nMeasurement of scar. The volumes of scar tissue were estimated by multiplying their thickness by the size of the scar on post-burn day 41 in pigs and post-excision day 10 in rabbits."}, "[7]": {"test": "Observation of deleterious effects in treated animals", "format": "in vivo, pig, rabbit", "conditions": "topical, any animal", "experimental": "as §3\nExcision wound model. Four pigs received intramuscular injection of ketamine, strenil® and atropine as described above. Six excision injuries were generated by removing full-thickness sections of skin (3×3 cm) from standardized sites on the back of each animal using a scapel. Three rabbits, were anesthetized by intramuscular injection of ketamine (5 mg/kg). Three excision injuries were produced in each by removing full-thickness sections of skin (0.5×1 cm) from each ear. […]"}, "[8]": {"conditions": "1.5 mM in gel, topical, listed as TGF-β peptantagonist"}}, "data": [{"sequence": "ANFCLGPCPYIWSLDTQYSKVLALY [peptide β1^25 (41-65)]", "values": [{"measurement": "inhibition of 125I-TGF-β1 binding to TGF-β receptors", "setting": "[1]", "result": "completely inhibited"}, {"measurement": "inhibition of 125I-TGF-β1-affinity labeling of the type V TGF-β receptor", "setting": "[2]", "result": "almost completely abolished"}, {"measurement": "inhibition of 125I-TGF-β1-affinity labeling of other TGF-β receptor types", "setting": "[3]", "result": "30-40%"}, {"measurement": "blocking of DNA synthesis inhibition induced by TGF-β1", "setting": "[4]; 0.025 ρM and 0.25 ρM TGF-β1, 18 μM peptide", "result": "completely blocked"}, {"measurement": "blocking of TGF-β1-induced growth inhibition, dose dependence", "setting": "[4]; 0.25 ρM TGF-β1, various concentrations of peptide", "result": "concentration-dependent manner"}, {"measurement": "effect on DNA synthesis in the absence of TGF-β1", "setting": "[5]; 0.1 μM to 36 μM peptide", "result": "did not have an effect"}, {"measurement": "reversal of growth inhibition induced by 0.2 μM β1^25 (41-65)-CA", "setting": "[5]; 10 μM peptide, data not shown", "result": "abolished"}, {"measurement": "wound contraction versus vehicle only", "setting": "[6]; 1.5 mM in gel, topical", "result": "less contraction"}, {"measurement": "re-epithelialization / healing rate versus vehicle", "setting": "[6]; 1.5 mM in gel, topical", "result": "rapid re-epithelialization"}, {"measurement": "re-epithelialization / healing rate versus vehicle", "setting": "[6]; [8]", "result": "healed faster"}, {"measurement": "re-epithelialization complete", "setting": "[6]; 1.5 mM in gel, topical, n=4", "result": "26±2", "unit": "post-burn day"}, {"measurement": "wound contraction versus vehicle only", "setting": "[6]; [8]", "result": "contracted significantly"}, {"measurement": "accelerating wound healing and reducing scarring", "setting": "[6]; 0.75 and 1.5 mM peptide in gel, topical", "result": "effective"}, {"measurement": "open wound", "setting": "[6]; post-burn day 23", "result": "very little open wound"}, {"measurement": "wound contraction", "setting": "[6]; post-burn day 33, 1.5 mM in gel, n=4", "result": "50±4", "unit": "%"}, {"measurement": "open wound", "setting": "[6]; post-burn day 34", "result": "very little open wound"}, {"measurement": "scarring versus vehicle-only control wounds", "setting": "[6]", "result": "less scarring"}, {"measurement": "scarring versus vehicle-only control wounds", "setting": "[6]; listed as TGF-β peptantagonist", "result": "less scar formation"}, {"measurement": "volume of scar tissue", "setting": "[6]; post-burn day 41", "result": "0.07±0.02", "unit": "cm^3"}, {"measurement": "deleterious effects", "setting": "[7]", "result": "no apparent deleterious effects"}]}]}
